The target of one series is T1, MAO-B (Homo sapiens, UniProt P27338).
T1 construct: purchased Sigma-Aldrich
T1 sequence (P27338 1-520): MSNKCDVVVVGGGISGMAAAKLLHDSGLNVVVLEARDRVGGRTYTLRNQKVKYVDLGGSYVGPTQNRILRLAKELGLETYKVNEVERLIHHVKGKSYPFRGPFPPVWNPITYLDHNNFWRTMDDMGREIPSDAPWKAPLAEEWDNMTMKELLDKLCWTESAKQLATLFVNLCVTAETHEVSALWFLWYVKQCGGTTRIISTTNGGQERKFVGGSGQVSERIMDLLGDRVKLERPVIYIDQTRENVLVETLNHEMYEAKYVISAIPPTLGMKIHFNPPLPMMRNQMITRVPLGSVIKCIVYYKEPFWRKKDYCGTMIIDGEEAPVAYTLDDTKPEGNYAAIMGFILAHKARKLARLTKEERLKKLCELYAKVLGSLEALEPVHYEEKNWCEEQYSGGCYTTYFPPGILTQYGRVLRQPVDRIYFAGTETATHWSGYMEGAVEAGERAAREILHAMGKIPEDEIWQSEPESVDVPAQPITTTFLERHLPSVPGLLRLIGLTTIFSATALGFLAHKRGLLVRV
In words: hMAO-B inhibition assay. The following applies: for inhibition at 0.1 µM: hMAO-B, 100 nM, read-out: Inhibitory rate (%, 100 nM). Format: biochemical. The method, then:
(§1) The reagents and enzymes (Human MAO-B and Human MAO-A) applied in this experiment were purchased from Sigma-Aldrich. According to the manuals, all components (substrate solution and enzyme solution) are diluted and placed aside for use. The detailed process has been mentioned in our early work[34].

A further series deals with T2, Human MAO-A (Homo sapiens, UniProt P21397).
T2 construct: purchased Sigma-Aldrich
T2 sequence (P21397 1-527): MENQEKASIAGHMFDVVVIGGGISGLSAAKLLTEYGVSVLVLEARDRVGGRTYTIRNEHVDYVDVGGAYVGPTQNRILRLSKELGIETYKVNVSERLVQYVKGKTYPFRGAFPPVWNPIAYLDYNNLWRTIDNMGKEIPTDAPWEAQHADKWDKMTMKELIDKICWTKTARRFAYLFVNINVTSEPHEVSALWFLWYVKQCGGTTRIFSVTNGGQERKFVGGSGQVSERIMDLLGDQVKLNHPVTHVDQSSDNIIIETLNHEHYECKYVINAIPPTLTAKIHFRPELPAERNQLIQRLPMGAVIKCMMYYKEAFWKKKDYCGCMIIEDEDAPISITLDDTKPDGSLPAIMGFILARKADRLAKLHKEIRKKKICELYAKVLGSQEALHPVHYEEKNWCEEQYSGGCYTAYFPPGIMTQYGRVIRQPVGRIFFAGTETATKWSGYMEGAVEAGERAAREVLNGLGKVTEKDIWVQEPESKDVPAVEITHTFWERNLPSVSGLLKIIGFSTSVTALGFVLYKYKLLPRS
Description: hMAO-A inhibition assay. Format: biochemical. Particulars: read-out: hMAO-A inhibitory rate at 10 μM; 10 μM (highest concentration tested). The method, then: Further, the inhibitory activity of compounds against hMAO-A isoform was tested and calculated as a selectivity index [Selectivity index (SI): IC50 (hMAO-A)/IC50 (hMAO-B)].
as §1

Series [1] is described as follows: pKa determination by automated spectrophotometric titration. Format: physicochemical. The following applies: 0.1 M KCl solution.
Series [2] can be described thus: iron (III) affinity constants and pFe3+ by spectrophotometric titration. Format: physicochemical. Particulars: for Log β1 / Log β2 / Log β3: DMSO: KCl (0.1 M) = 1:1.5 (v/v); for pFe^3+: calculated from Log β values obtained in DMSO: KCl (0.1 M) = 1:1.5 (v/v).

Molecules are shown by their SMILES. Like-named read-outs stand apart in the source and are kept apart here.

In the case of `Cc1c(O)c(=O)ccn1CCNC(=O)c1coc2ccccc2c1=O` [Compound 8a, N-(2–(3-hydroxy-2-methyl-4-oxopyridin-1(4H)-yl)ethyl)-4-oxo-4H-chromene-3-carboxamide], the melting point (usually the temperature of the solid-liquid transition) lay in the range of 268 to 270 °C. In addition, on MAO-B, half-maximal inhibition (IC50) required 112 ± 1.3 nM, the “SI: hMAO-B selectivity index = IC50 (hMAO-A)/IC50 (hMAO-B)” value (“SI: hMAO-B selectivity index = IC50” for short) is above 89 and the inhibition at 0.1 µM is 42.2 ± 3.7%. At Human MAO-A, the inhibition at 10 µM was below 20%. Moreover, in series [1] (read-out: pKa1), the pKa came out at 3.29. For the same compound, in series [1] (read-out: pKa2), the pKa turned out to be 9.67. In series [2], the “Log β1” value is 13.67, the “Log β2” value is on record as 25.22, the “Log β3” value was 34.95 and the “pFe^3+” value was 18.68.
As to `Cc1ccc2c(=O)c(C(=O)NCCn3ccc(=O)c(O)c3C)coc2c1` [Compound 8b, N-(2–(3-hydroxy-2-methyl-4-oxopyridin-1(4H)-yl)ethyl)-7-methyl-4-oxo-4H-chromene-3-carboxamide], the melting point fell in the range of 270 to 272 °C. Also, on MAO-B, the inhibition at 0.1 µM stood at 35.79 ± 0.2%. Besides, the pKa in series [1] (read-out: pKa1) came to 3.32. Further, in series [1] (read-out: pKa2), the pKa came to 9.58. In series [2], the “Log β1” value is 13.74, the “Log β2” value amounted to 25.04, the “Log β3” value is listed as 34.36 and the “pFe^3+” value is given as 18.35.
For the compound `Cc1ccc2occ(C(=O)NCCn3ccc(=O)c(O)c3C)c(=O)c2c1` [Compound 8c, N-(2–(3-hydroxy-2-methyl-4-oxopyridin-1(4H)-yl)ethyl)-6-methyl-4-oxo-4H-chromene-3-carboxamide], the melting point lay within 265 to 267 °C. Besides, at MAO-B, the midpoint of inhibition, the IC50, lay at 112 ± 5.7 nM; the “SI: hMAO-B selectivity index = IC50” value was above 89; the inhibition at 0.1 µM stood at 42.1 ± 0.8%. Further, on Human MAO-A, the inhibition at 10 µM is below 20%. The pKa in series [1] (read-out: pKa1) is 3.26. Also, in series [1] (read-out: pKa2), the pKa is 9.69. Besides, in series [2], the “Log β1” value is 13.86, the “Log β2” value came out at 25.07, the “Log β3” value worked out at 33.48 and the “pFe^3+” value was 17.19.
`COc1ccc2c(=O)c(C(=O)NCCn3ccc(=O)c(O)c3C)coc2c1` [Compound 8d, N-(2–(3-hydroxy-2-methyl-4-oxopyridin-1(4H)-yl)ethyl)-7-methoxy-4-oxo-4H-chromene-3-carboxamide] gave a melting point of 248 to 250 °C. At MAO-B, half-maximal inhibition (IC50) required 107 ± 5.6 nM, the “SI: hMAO-B selectivity index = IC50” value was above 93 and the inhibition at 0.1 µM is 41.9 ± 1.4%. Moreover, the inhibition at 10 µM at Human MAO-A was below 20%. Further, in series [1] (read-out: pKa1), the pKa came out at 3.2. For the same compound, the pKa in series [1] (read-out: pKa2) came out at 9.6. Also, in series [2], the “Log β1” value is recorded as 13.82, the “Log β2” value worked out at 25.31, the “Log β3” value is 34.23 and the “pFe^3+” value is 18.18.
`COc1ccc2occ(C(=O)NCCn3ccc(=O)c(O)c3C)c(=O)c2c1` [Compound 8e, N-(2–(3-hydroxy-2-methyl-4-oxopyridin-1(4H)-yl)ethyl)-6-methoxy-4-oxo-4H-chromene-3-carboxamide] registered a melting point of 260 to 262 °C. Further, at MAO-B, the inhibition at 0.1 µM is 34.3 ± 2.2%. The pKa in series [1] (read-out: pKa1) was 3.18. The pKa in series [1] (read-out: pKa2) worked out at 9.67. In addition, in series [2], the “Log β1” value is on record as 13.67, the “Log β2” value was 25.38, the “Log β3” value is on record as 35.37 and the “pFe^3+” value is recorded as 19.08.
In the case of `Cc1c(O)c(=O)ccn1CCNC(=O)c1coc2cc(OCc3ccccc3)ccc2c1=O` [Compound 15a, 7-(Benzyloxy)-N-(2–(3-hydroxy-2-methyl-4-oxopyridin-1(4H)-yl)ethyl)-4-oxo-4H-chromene-3-carboxamide], the melting point fell in the range of 225 to 227 °C. For the same compound, the inhibition at 0.1 µM at MAO-B was 39 ± 1.1%. In addition, the pKa in series [1] (read-out: pKa1) was 3.3. In addition, the pKa in series [1] (read-out: pKa2) came to 9.59. Also, in series [2], the “Log β1” value is 13.77, the “Log β2” value is 24.72, the “Log β3” value is 32.17 and the “pFe^3+” value is 16.45.
In turn, `Cc1cccc(COc2ccc3c(=O)c(C(=O)NCCn4ccc(=O)c(O)c4C)coc3c2)c1` [Compound 15b, N-(2–(3-hydroxy-2-methyl-4-oxopyridin-1(4H)-yl)ethyl)-7-((3-methylbenzyl)oxy)-4-oxo-4H-chromene-3-carboxamide] came in with a melting point of 238 to 240 °C. At MAO-B, the inhibition at 0.1 µM stood at 39.1 ± 1.1%. Besides, in series [1] (read-out: pKa1), the pKa worked out at 3.06. The pKa in series [1] (read-out: pKa2) was determined as 9.73. Besides, in series [2], the “Log β1” value is 13.64, the “Log β2” value is given as 25.57, the “Log β3” value came out at 34.21 and the “pFe^3+” value is 17.80.
As for `Cc1ccc(COc2ccc3c(=O)c(C(=O)NCCn4ccc(=O)c(O)c4C)coc3c2)cc1` [Compound 15c, N-(2–(3-hydroxy-2-methyl-4-oxopyridin-1(4H)-yl)ethyl)-7-((4-methylbenzyl)oxy)-4-oxo-4H-chromene-3-carboxamide], the melting point was 234 to 236 °C. Besides, the inhibition at 0.1 µM on MAO-B came out at 38.7 ± 0.5%. For the same compound, the pKa in series [1] (read-out: pKa1) was found to be 3.19. For the same compound, in series [1] (read-out: pKa2), the pKa was determined as 9.34. Also, in series [2], the “Log β1” value was found to be 13.40, the “Log β2” value is recorded as 23.16, the “Log β3” value worked out at 31.01 and the “pFe^3+” value is recorded as 15.87.
In turn, `Cc1c(O)c(=O)ccn1CCNC(=O)c1coc2cc(OCc3cccc(F)c3)ccc2c1=O` [Compound 15d, 7-((3-Fluorobenzyl)oxy)-N-(2–(3-hydroxy-2-methyl-4-oxopyridin-1(4H)-yl)ethyl)-4-oxo-4H-chromene-3-carboxamide] showed a melting point of 237 to 239 °C. At MAO-B, the inhibition at 0.1 µM came out at 38.5 ± 1.4%. Further, the pKa in series [1] (read-out: pKa1) is 3.36. Moreover, the pKa in series [1] (read-out: pKa2) came to 9.52. In addition, in series [2], the “Log β1” value stood at 13.50, the “Log β2” value was 25.31, the “Log β3” value is on record as 34.85 and the “pFe^3+” value is listed as 19.01.
As to `Cc1c(O)c(=O)ccn1CCNC(=O)c1coc2cc(OCc3ccc(Cl)cc3)ccc2c1=O` [Compound 15g, 7-((4-Chlorobenzyl)oxy)-N-(2–(3-hydroxy-2-methyl-4-oxopyridin-1(4H)-yl)ethyl)-4-oxo-4H-chromene-3-carboxamide], the melting point is 241 to 243 °C. On MAO-B, the inhibition at 0.1 µM is 39.1 ± 0.5%. For the same compound, the pKa in series [1] (read-out: pKa1) worked out at 3.25. In series [1] (read-out: pKa2), the pKa is 9.56. In series [2], the “Log β1” value amounted to 13.82, the “Log β2” value is reported as 24.02, the “Log β3” value is on record as 31.70 and the “pFe^3+” value is given as 16.00.
The compound `Cc1ccc(COc2ccc3c(=O)c(CNCCn4ccc(=O)c(O)c4C)coc3c2)cc1` [Compound 17h, 3-Hydroxy-2-methyl-1–(2-(((7-((4-methylbenzyl)oxy)-4-oxo-4H-chromen-3-yl)methyl)amino)ethyl)pyridin-4(1H)-one] displayed a melting point of 134 to 136 °C. For the same compound, on MAO-B, the inhibition at 0.1 µM worked out at 30.1 ± 3.7%. In addition, in series [1] (read-out: pKa1), the pKa amounted to 2.56. Further, in series [1] (read-out: pKa2), the pKa came out at 9.59. Besides, in series [2], the “Log β1” value is 12.87, the “Log β2” value was found to be 24.73, the “Log β3” value is given as 33.36 and the “pFe^3+” value is 17.34.
Regarding `Cc1c(O)c(=O)ccn1CCNCc1coc2cc(OCc3cccc(F)c3)ccc2c1=O` [Compound 17i, 1–(2-(((7-((3-Fluorobenzyl)oxy)-4-oxo-4H-chromen-3-yl)methyl)amino)ethyl)-3-hydroxy-2-methylpyridin-4(1H)-one], the melting point lay in the range of 215 to 217 °C. In addition, the inhibition at 0.1 µM on MAO-B is 39.48 ± 0.3%. The pKa in series [1] (read-out: pKa1) worked out at 2.58. For the same compound, the pKa in series [1] (read-out: pKa2) was 9.68. In series [2], the “Log β1” value is reported as 12.93, the “Log β2” value came out at 24.99, the “Log β3” value stood at 34.10 and the “pFe^3+” value was 17.81.

Values taken from article PMC9762789, “Chromone-based monoamine oxidase B inhibitor with potential iron-chelating activity for the treatment of Alzheimer’s disease” (Journal of Enzyme Inhibition and Medicinal Chemistry, 2022).
